These results are taken from patent US5367062A, “Disubstituted and deoxydisubstituted derivatives of α-d-lyxofuranosides having anti-inflammatory and anti-proliferative activity” (Medicarb Inc., priority 1992, dated 1994).

For one assay, the system named is rheumatoid arthritis. As to conditions: cited from earlier work.
Another assay concerns mouse spleen cells. The assay is described as follows: Concanavalin A assay (mouse spleen cell mitogen induced blastogenesis). Type of assay: cell-based. As to conditions: 72 h, estimated, Con-A 1.25 μg/ml, 3 days, MTT. From the text:
iii Concanavalin A assay (the mouse spleen cell mitogen induced blastogenesis).
(§1) The MLR assay measures the effects of a study compound on the activation and antigen presentation of T-lymphocytes, therefore determining immunomodulatory properties. The mouse spleen cell mitogen-induced blastogenesis and the BUD-8 human fibroblast proliferation assays measure the effects of the compounds of the present invention on cellular proliferation of cells involved in the pathogenesis of autoimmune diseases. These two assays are appropriate as screens to ascertain anti-inflammatory and/or autoimmune diseases.
It is known that the induction and maintenance of most inflammatory diseases are typically due to the unrestricted activity of T-lymphocytes. Therefore, it is advantageous to identify compounds which are modulators of T-lymphocyte activity for eventual use in the regulation of inflammatory diseases, including acquired immune deficiency syndrome, psoriasis, systemic lupus, erythromatosus, and rheumatoid arthritis.
A simple method is used to screen compounds for their ability to modulate T-lymphocyte activity which comprises assessing the capacity of the compounds to alter the activation of murine spleen cells in response to T-lymphocyte mitogen activators, such as Conconavalin-A (Con-A). The method used to measure the effects of the compounds of the present invention on the blastogenic response of spleen cells to the T-lymphocyte mitogen (Con-A) is as follows:
The response of a mouse spleen cells to the T cell mitogen ConA is a classical assay. In this assay, mice were euthanized by cervical dislocation and their spleens removed surgically. A single cell suspension of the spleens was prepared in culture medium (RPMI-1640 with hepes, supplemented with 10% calf serum, 2 mM glutamine, 500 units penicillin/streptomycin, and 4×10^-5 M 2-mercaptoethanol) using a Teflon pestle. The cells were centrifuged at 1500 RPM and the pellets resuspended in ACT (0.15 M Tris, 0.14 M Ammonium chloride, pH 7.2) in order to lyse the red blood cells. After a five minutes incubation in 37° C. waterbath, the cells were washed and resuspended in culture medium. The splenic lymphocytes were counted using an electronic Coulter Counter and diluted to 5.0×10^6 cells/mi.
The test articles were diluted in culture medium to the appropriate concentrations. Aliquots 100 μl were distributed to triplicate wells in a 96-well microtiter plate. 50 μl of lymphocytes (2.5×10^5 cells) were added to each well. Control wells with vehicle and wells with media were also run. Plates were incubated for one hour at 37° C. 50 μl of Con-A (5 μl/ml) were then added to the wells to result in a final concentration of 1.25 μg/ml. After incubation at 37° C. with 5% carbon dioxide for 3 days, proliferation was measured by adding 20 μl of MTT (10 mg/mlin PBS) [3-(4,5-dimethyl-thiazol-2-yl)-2,5-diphenyltetrazoliumbromidel to each well. Plates were incubated for 4 hours at 37° C., after which 180 μl of 10% SDS in PBS were added. After an overnight incubation, the optical density (OD) of each well was read using a Molecular Devices microplate reader at 570-650 nm.
(§2) Duplicate cultures without Con-A were also set up. After 3 days of incubation, supernatants were assayed for lactate dehydrogenase activity to determine the viability of the cells, which is an indication of the toxicity of the test article on the splenic lymphocytes. 0.1 ml of supernatant was mixed with 0.1 ml of the LDH substrate mixture which contains 5.4×10^-2 M L(+) lactate, 6.6×10^-4 M 2-p-iodophenyl-3-p-nitrophenyl tetrazolium chloride, 2.8×10^-4 M phenazine methosulfate, 1.3×10^-3 M AND, and 0.2 M Tris buffer, pH 8.2. Plates were read immediately for 5 minutes at 490 nm using a Molecular Devices microplate reader.
The mean for each test article treated group was determined and compared to the mean of the control group. The percent change from the control was calculated, and the IC50 was estimated. […]

The test system of assay [1] is various tumor cell lines, derived from seven cancer types. The assay is described as follows: Tumor cell line screens (leukemia, melanoma, lung, colon, renal, ovarian, brain cancer). It is filed as cell-based. As to conditions: average over tumor cell lines; read-out: GI (Average GI50) (converted). On the procedure: The compounds of the present invention were also tested against various tumor cell lines, derived from seven cancer types. These include leukemia, melanoma, lung cancer, colon cancer, renal cancer, ovarian cancer, and brain cancer. Most of the compounds have shown significant activity in various screens, particularly against colon cancer and melanoma.

Another assay has as its system BUD-8 human fibroblast. Description: BUD-8 human cell line fibroblast proliferation assay. Type of assay: cell-based. As to conditions: 72 h, estimated, BUD-8 cells, 3 days, MTT.
Text: ii BUD-8 human cell line fibroblast proliferation assay.
as §1
The skin cell fibroblast line, BUD-8, was originally derived from the normal skin of a person and can now be obtained from the American Type Culture Collection, Rockville, Md. The concentration of the compounds which were used in this assay were: 1, 10, 30, 100, and 300 μM. The vehicle was used as the negative control. Test compounds were prepared in DMSO at a stock concentration of […]. Appropriate dilutions were made in culture medium.
In this assay BUD-8 cells were collected, counted, and diluted to 2×10^4 cells/ml. 0.1 ml was plated per well to give 2×10^3 cells/well. The compounds of the present invention were diluted in culture medium to the appropriate concentrations. Aliquotes of 100 μl were distributed to triplicate wells. Control wells with vehicle and wells with media were also run. After a three day incubation at 37° C. with 5% carbon dioxide, proliferation was measured by adding 20 μl of MTT (10 mg/ml in PBS) (3-[4,5-dimethyl thiazol-2-yl]-2,5diphenyl-tetrazolium bromide) to each well. Plates were incubated for 4 hours at 37° C., after which 180 μl of 10% SDS in PBS were added. After an overnight incubation, the optical density (OD) of each well was read using a Molecular Devices microplate reader at 570-650 nm.
as §2, with “cultures” for “cultures without Con-A”, “set up to measure viability.” for “set up.”, “dehydrogenase (LDH)” for “dehydrogenase”, “the BUD-8 cells.” for “the splenic lymphocytes.”, “of supernatent” for “of supernatant”, “Tris buffer. PH” for “Tris buffer, pH”
The mean for each test article treated group was determined and compared to the mean of the control group. The percent change from the control was calculated, and the IC50 estimated. The criteria used to establish activity levels were:
Sixteen (16) test articles were assayed for their ability to inhibit fibroblast proliferation. The test article were added to BUD-8 cell cultures to give final concentrations of 1, 10, 30, 100, and 300 μM. The proliferation observed in the test article treated wells were compared to the DMSO control wells.

The subject of assay [2] is T cells (BALB/CBYJ responder spleen cells with C57BL/6J stimulator spleen cells). Description: Mixed lymphocyte response (MLR). Type of assay: cell-based. As to conditions: Mus musculus, T-cell, 120 h; estimated; 5 days incubation; MTT.
Text: i Mixed lymphocyte response (MLR).
as §1
The MLR is a classical assay used to measure T cell function by studying the proliferation response of T cells which are activated in vitro by genetically disparate stimulator cells. This is accomplished by co-culturing spleen cells from two different strains of mice. Splenic T cell proliferation occurs as a result of cellular activation signals generated by the ongoing cellular interactions.
In performing MLR assays, BALB/CBYJ mice were euthanized by cervical dislocation and their spleens removed. Single cell suspensions were prepared in culture medium (RPMI-1640 with hepes supplemented with 10% calf serum, 2 mM glutamine, 500 units penicillin/streptomycin and 4×10^-5 M 2-mercaptoethanol) using a Teflon pestle. The cells were centrifuged at 1500 RPM and the pellets resuspended in ACT (0.15 M Tris, 0.14 M ammonium chloride, pH 7.2 ) in order to lyse the red blood cells. After a 5 minutes incubation at 37° C. waterbath, the cells were washed and resuspended in culture medium. The splenic lymphocytes were counted. C57BL/6J spleen cells, which were used as stimulator cells, were prepared in the same way. The stimulator cells were treated with 50 μm/ml of mitomycin C for 20 minutes at 37° C., then washed five times in culture medium. The proliferative response were measured by culturing 5×10^5 responder spleen cells with 5×10^5 stimulator cells in 96-well microtiter plates in the presence or absence of test article or vehicle (DMSO). Syngeneic control cultures using mitomycin C treated normal BALB/C spleen cells as the stimulator cells were also run. All cultures were run in triplicate.
Solutions of compounds of the present invention in DMSO were prepared at a stock concentration of 300 mM. Solutions were made in a culture medium to a concentration of 1, 10, 30, 100, and 300 μM. The vehicle DMSO was used as a negative control.
After incubation for 5 days at 37° C. with 5% carbon dioxide, the amount of cell proliferation was measured by adding 20 μl of MTT (10 mg/ml in PBS) (3-[4,5-dimethylthiazol-2-yl]-2,5-diphenyltetrazolium bromide) to each well. plates were incubated for 4 hours at 37° C., after which 180 μl of supernatant was removed and 180 μl of 10% SDS in PBS was added. After an overnight incubation, the optical density (OD) of each well was read on a Molecular Devices microplate reader at 570-650 nm.
The results were determined by calculating the difference between the means of the allogeneic cultures and the means of the syngeneic cultures for each test compound concentration. Differences of the test article groups were compared to the difference of the control group. The percent change from the control was determined and an IC50 estimated. The criteria used to establish activity levels were:
Sixteen (16) novel compounds were assayed for their ability to modulate a Mixed Lymphocyte Response in vitro. The test compounds were added to MLR cultures to give final concentrations of 1, 10, 30, 100, and 300 μm. The responses observed in the test article treated wells were compared to the control wells. […] Based on the estimated IC50 all the test compounds were strong inhibitors of the MLR.

Counter-ions that a name gives are not always drawn. Bounds are passed on as bounds.

In the case of `CN(C)CCCO[C@@H]1[C@H]2OC(C)(C)O[C@H]2O[C@@H]1[C@H](O)CO` [Amiprilose. HCl, 1,2-0-isopropylidene-3-0-3'-(N',N'-dimethylaminopropyl)-α-D-glucofuranose], in the assay with rheumatoid arthritis (in vivo), the “Anti-inflammatory activity (in words)” value was “known to have anti-inflammatory activity”. For the same compound, the “Utility in managing the signs and symptoms of rheumatoid arthritis (in words)” value with rheumatoid arthritis (late Phase III clinical trials) is “demonstrated utility in managing the signs and symptoms of rheumatoid arthritis”.

As to `CCCCCCCCCOCCCO[C@H]1O[C@H](COCCN2CCCC2)[C@@H]2OC(C)(C)O[C@H]12` [V, n-Nonyloxypropyl 2,3-0-(1-methlethylidene)-5-0-N'-ethylpyrrolidinyl-α-D-lyxofuranoside], the 50% inhibitory concentration (IC50) is 2.9 µM with mouse spleen cells, 28 µM in the assay on BUD-8 human fibroblast and below 1 µM in assay [2]. In addition, the 50% growth inhibitory concentration (GI50) in assay [1] is 5.62 µM.

On to `CCCCCCCCCOCCCO[C@H]1O[C@H](COCCN2CCCCC2)[C@@H]2OC(C)(C)O[C@H]12` [VI, n-Nonyloxypropyl 2,3-0-(1-methlethylidene)-5-0-N'-ethylpiperidinyl-α-D-lyxofuranoside], for which the 50% inhibitory concentration (IC50) was 2.7 µM in the assay on mouse spleen cells, above 100 µM in the assay on BUD-8 human fibroblast and 0.5 µM in assay [2].

On to `CCCCCCCCCOCCCO[C@H]1O[C@H](CN2CCCC2)[C@@H]2OC(C)(C)O[C@H]12` [XVI], for which the IC50 with mouse spleen cells is 3.5 µM; in the assay with BUD-8 human fibroblast, 58 µM; in assay [2], below 1 µM. Further, the GI50 in assay [1] was 5.13 µM.

Turning to `CCCCCCCCCOCCCO[C@H]1O[C@H](CNCCCN2CCCC2)[C@@H]2OC(C)(C)O[C@H]12` [XXIV, n-Nonyloxypropyl 5-deoxy-2,3-0-(1-methylethylidene)-5-aminopropylpyrrolidinyl-α-D-lyxofuranoside], the results for the half-inhibitory concentration (IC50) (with mouse spleen cells; with BUD-8 human fibroblast; in assay [2]) were 2.5 µM, 16 µM and 0.85 µM, respectively.

Consider `CCCCCCCCCNC[C@H]1O[C@H](OCCCc2ccccc2)[C@H]2OC(C)(C)O[C@H]21` [XXIX, Phenylpropyl 5-deoxy-2,3-0-(1-methylethylidene)-5-aminononyl-α-D-lyxofuranoside], for which the concentration for half-maximal inhibition (IC50) with mouse spleen cells was 5 µM; with BUD-8 human fibroblast, 20 µM; in assay [2], 1.5 µM. Also, the GI50 in assay [1] was 32.4 µM.

On to `CC1(C)O[C@@H]2[C@@H](OCCCc3ccccc3)O[C@H](CN3CCCC3)[C@@H]2O1` [XXV, Phenylpropyl 5-deoxy-2,3-0-(1-methylethylidene)-5-pyrrolidinyl-α-D-lyxofuranoside], for which the 50% inhibitory concentration (IC50) was 25 µM in the assay on mouse spleen cells, 200 µM with BUD-8 human fibroblast and 12 µM in assay [2]. Also, in assay [1], the concentration for 50% growth inhibition (GI50) was 95.5 µM.

In the case of `CN(C)CCCOC[C@H]1O[C@H](OCCCc2ccccc2)[C@H]2OC(C)(C)O[C@H]21` [X], the half-inhibitory concentration (IC50) is 55 µM in the assay on mouse spleen cells, 299 µM with BUD-8 human fibroblast and below 1 µM in assay [2]. Further, the GI50 in assay [1] is 91.2 µM.

As usually defined, the IC50 is the concentration at which inhibition is half-maximal. One may read the GI50 as the concentration giving 50% growth inhibition.
